Measurements taken from PubChem BioAssay (NCI).
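Values below derive from 48-hour exposures of cells grown in 96-well plates, with endpoints linearly interpolated between the two concentrations bracketing the appropriate inhibition level. TGI: concentration producing complete growth inhibition.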

Assays:
Test in all cases: growth of human tumour cells (NCI), 48 h
[1] = tested on: IGROV1 ovarian
[2] = tested on: MDA-N
[3] = tested on: NCI-H522 lung
[4] = tested on: NCI/ADR-RES ovarian
[5] = tested on: OVCAR-3 ovarian
[6] = tested on: OVCAR-5 ovarian
[7] = tested on: PC-3 prostate
[8] = tested on: SF-268 CNS
[9] = tested on: SF-295 CNS
[10] = tested on: SF-539 CNS
[11] = tested on: SK-MEL-28 melanoma
[12] = tested on: SW-620 colon
[13] = tested on: T-47D breast
[14] = tested on: UACC-62 melanoma

Row | Structure (SMILES) | TGI [1] [µM] | TGI [2] [µM] | TGI [3] [µM] | TGI [4] [µM] | TGI [5] [µM] | TGI [6] [µM] | TGI [7] [µM] | TGI [8] [µM] | TGI [9] [µM] | TGI [10] [µM] | TGI [11] [µM] | TGI [12] [µM] | TGI [13] [µM] | TGI [14] [µM]
1 | N/C(=N\S(=O)(=O)c1cc(Cl)c(Oc2ccc([N+](=O)[O-])cc2Cl)c(Cl)c1)Nc1ccc(Cl)cc1 | 31.4 | 34.8 | > 100 | 35.3 | 37.6 | 53.6 | 30.5 | > 100 | 39.5 | 34.4 | 33 | 45.9 | 34.2 | 25.6
2 | COc1cc(/C=N/NC2=NCCCCN2)ccc1O | > 100 | > 100 | > 100 | > 100 | > 100 | > 100 | > 100 | > 100 | > 100 | > 100 | > 100 | > 100 | > 100 | > 100
3 | O=c1oc2ccc([N+](=O)[O-])cc2cc1Br | > 100 | > 100 | > 100 | > 100 | > 100 | > 100 | > 100 | > 100 | > 100 | > 100 | > 100 | > 100 | > 100 | > 100
4 | C#CC1NC(=O)C1N(CC)CC (stereo unspecified) | > 100 | > 100 | > 100 | > 100 | > 100 | > 100 | > 100 | > 100 | > 100 | > 100 | > 100 | > 100 | > 100 | > 100
5 | NC(=O)C(=CNC(=S)Nc1cccc(C(F)(F)F)c1)C(N)=O | – | > 100 | – | > 100 | > 100 | > 100 | > 100 | > 100 | > 100 | > 100 | > 100 | > 100 | > 100 | > 100
6 | CC1CN=C(Nc2ccc(F)c(Cl)c2)S1 (stereo unspecified) | > 100 | > 100 | > 100 | > 100 | > 100 | > 100 | > 100 | > 100 | > 100 | > 100 | > 100 | > 100 | > 100 | > 100
7 | O=[N+]([O-])c1cccc(N=Nc2c(O)ccc3ccccc23)c1 | > 100 | > 100 | > 100 | > 100 | – | > 100 | > 100 | > 100 | > 100 | – | > 100 | > 100 | > 100 | > 100
8 | Clc1c2ccccc2nc2c1[nH]c1ccccc12 | > 100 | 16.9 | > 100 | 89.7 | > 100 | > 100 | > 100 | > 100 | > 100 | > 100 | > 100 | > 100 | > 100 | > 100
9 | O=C(N/N=C/C=C/c1ccc([N+](=O)[O-])o1)c1ccc(C(=O)N/N=C/C=C/c2ccc([N+](=O)[O-])o2)cc1 | > 100 | > 84.8 | 89 | > 92.8 | > 100 | > 100 | > 52.3 | > 58.5 | > 100 | 22.3 | > 100 | 98.5 | > 69.2 | > 100
10 | O=C1CC2SC(COCc3ccccc3)(CCN2Cc2ccccc2)C1 (stereo unspecified) | > 100 | > 100 | > 100 | > 100 | > 100 | > 100 | > 100 | > 100 | > 100 | > 100 | > 100 | > 100 | > 100 | > 100
11 | COC(=O)C1=NN2c3ccccc3CN([C@@H](C)c3ccccc3)C(=O)[C@@H]2[C@H]1c1ccccc1 | – | > 100 | > 100 | > 100 | > 100 | > 100 | > 100 | > 100 | > 100 | > 100 | > 100 | > 100 | > 100 | > 100
12 | Cc1csc(NNC(=O)Nc2ccccc2)n1 | > 100 | > 100 | > 100 | > 100 | – | > 100 | > 100 | > 100 | > 100 | > 100 | > 100 | > 100 | > 100 | > 100
13 | COc1cc2ccc1OCc1cccc(n1)COc1ccc(cc1OC)C=NCCNCCN=C2 | > 100 | > 100 | > 100 | > 100 | > 100 | > 100 | > 100 | > 100 | > 100 | > 100 | > 100 | > 100 | > 100 | –
14 | O=C1O/C(=C\c2ccc(O)cc2)C(c2ccc(O)c(Cl)c2)=C1Cl | > 100 | 68 | 53.3 | 97.6 | > 100 | > 100 | > 100 | > 100 | > 100 | > 100 | > 100 | > 100 | > 100 | > 100
15 | CCCCc1c2c(c(C)c3c1C(=O)OC3)Oc1ccccc1O2 | > 100 | 0.456 | 1.15 | 20.5 | 1.51 | > 100 | > 34.8 | > 100 | > 51.4 | 3.67 | > 100 | > 42 | > 100 | > 100
16 | Cc1cc2nc(N3C(=O)/C(=C/c4ccc(N(C)C)cc4)N=C3c3ccccc3)sc2cc1C | > 100 | 33.8 | – | > 100 | > 100 | 84.2 | 43.5 | > 100 | > 100 | 53.4 | > 100 | > 100 | > 100 | > 100
